Results taken from the kinase profiling compilation of Christmann-Franck et al. (2016).

Assays:
Experiment in all cases: KINOMEscan competition binding
Details in all cases: compound 10.0 µM
DCLK3 (human) = DCLK3 (human) (UniProt Q9C098)
RIOK1 (human) = RIOK1 (human) (UniProt Q9BRS2)
SGK1 (human) = SGK1 (human) (UniProt O00141)
NLK (human) = NLK (human) (UniProt Q9UBE8)
TEC (human) = TEC (human) (UniProt P42680)
PAK2 (human) = PAK2 (human) (UniProt Q13177)
FGFR1 (human) = FGFR1 (human) (UniProt P11362)
BRAF (human) = BRAF (human) (UniProt P15056)
MAPK1 (human) = MAPK1 (human) (UniProt P28482)
ACVRL1 (human) = ACVRL1 (human) (UniProt P37023)
STK33 (human) = STK33 (human) (UniProt Q9BYT3)
CSNK2A2 (human) = CSNK2A2 (human) (UniProt P19784)
GSG2 (human) = GSG2 (human) (UniProt Q8TF76)
[1] = test system: KIT (human), P10721 [D816H]
CHEK1 (human) = CHEK1 (human) (UniProt O14757)
PLK4 (human) = PLK4 (human) (UniProt O00444)
AURKC (human) = AURKC (human) (UniProt Q9UQB9)
CDK8 (human) = CDK8 (human) (UniProt P49336)
EPHB4 (human) = EPHB4 (human) (UniProt P54760)
BLK (human) = BLK (human) (UniProt P51451)
STK16 (human) = STK16 (human) (UniProt O75716)
CSNK1G3 (human) = CSNK1G3 (human) (UniProt Q9Y6M4)
PAK7 (human) = PAK7 (human) (UniProt Q9P286)
PTK2B (human) = PTK2B (human) (UniProt Q14289)
LCK (human) = LCK (human) (UniProt P06239)
RIPK1 (human) = RIPK1 (human) (UniProt Q13546)
MAP4K5 (human) = MAP4K5 (human) (UniProt Q9Y4K4)
MYO3B (human) = MYO3B (human) (UniProt Q8WXR4)
CPK1 (P.falciparum) = test system: CPK1 (P.falciparum)
EPHB2 (human) = EPHB2 (human) (UniProt P29323)
[2] = test system: PIK3CA (human), P42336 [M1043I]
EPHA4 (human) = EPHA4 (human) (UniProt P54764)
ADCK4 (human) = ADCK4 (human) (UniProt Q96D53)
CDK4 CCND3 (human) = CDK4 CCND3 (human) (UniProt P11802+P30281)
CSNK1A1 (human) = CSNK1A1 (human) (UniProt P48729)
CSNK1D (human) = CSNK1D (human) (UniProt P48730)
WNK1 (human) = WNK1 (human) (UniProt Q9H4A3)
ACVR2B (human) = ACVR2B (human) (UniProt Q13705)
MAST1 (human) = MAST1 (human) (UniProt Q9Y2H9)

Sequence of EPHA4 (human) (P54764 whole entry, looked up): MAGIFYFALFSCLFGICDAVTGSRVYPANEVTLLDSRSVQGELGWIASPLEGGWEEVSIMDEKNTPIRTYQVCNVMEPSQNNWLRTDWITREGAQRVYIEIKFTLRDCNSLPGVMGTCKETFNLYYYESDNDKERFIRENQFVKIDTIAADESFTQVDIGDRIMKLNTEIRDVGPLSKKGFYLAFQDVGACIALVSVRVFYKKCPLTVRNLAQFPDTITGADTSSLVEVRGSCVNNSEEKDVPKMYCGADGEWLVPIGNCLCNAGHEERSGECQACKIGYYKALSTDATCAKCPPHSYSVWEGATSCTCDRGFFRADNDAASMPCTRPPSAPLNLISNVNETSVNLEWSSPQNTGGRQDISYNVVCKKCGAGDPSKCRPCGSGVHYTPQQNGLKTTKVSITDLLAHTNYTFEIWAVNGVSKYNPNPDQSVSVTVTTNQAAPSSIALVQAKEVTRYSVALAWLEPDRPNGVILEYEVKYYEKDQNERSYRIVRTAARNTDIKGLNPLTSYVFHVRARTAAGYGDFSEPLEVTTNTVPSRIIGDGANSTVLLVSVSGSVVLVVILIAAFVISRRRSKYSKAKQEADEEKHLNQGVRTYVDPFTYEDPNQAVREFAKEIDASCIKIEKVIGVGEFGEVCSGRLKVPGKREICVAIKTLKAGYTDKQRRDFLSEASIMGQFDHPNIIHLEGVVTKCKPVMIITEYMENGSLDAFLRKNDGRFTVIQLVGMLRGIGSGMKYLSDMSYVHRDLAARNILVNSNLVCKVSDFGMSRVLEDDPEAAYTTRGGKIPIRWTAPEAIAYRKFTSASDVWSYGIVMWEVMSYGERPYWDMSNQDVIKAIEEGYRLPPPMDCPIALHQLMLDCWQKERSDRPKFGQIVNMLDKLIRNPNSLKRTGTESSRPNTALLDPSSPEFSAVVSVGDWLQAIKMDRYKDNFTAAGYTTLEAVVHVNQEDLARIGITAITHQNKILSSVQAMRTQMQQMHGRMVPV
Sequence of CSNK1A1 (human) (P48729 whole entry, looked up): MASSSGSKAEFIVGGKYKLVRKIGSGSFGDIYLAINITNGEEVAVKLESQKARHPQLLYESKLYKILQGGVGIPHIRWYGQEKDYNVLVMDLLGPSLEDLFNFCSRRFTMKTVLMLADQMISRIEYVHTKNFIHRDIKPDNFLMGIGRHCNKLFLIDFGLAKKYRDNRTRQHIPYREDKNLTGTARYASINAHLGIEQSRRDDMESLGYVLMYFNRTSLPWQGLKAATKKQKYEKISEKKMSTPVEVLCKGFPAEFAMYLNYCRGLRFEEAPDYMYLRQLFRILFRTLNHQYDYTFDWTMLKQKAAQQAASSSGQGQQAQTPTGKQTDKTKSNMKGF
Sequence of ADCK4 (human) (Q96D53 whole entry, looked up): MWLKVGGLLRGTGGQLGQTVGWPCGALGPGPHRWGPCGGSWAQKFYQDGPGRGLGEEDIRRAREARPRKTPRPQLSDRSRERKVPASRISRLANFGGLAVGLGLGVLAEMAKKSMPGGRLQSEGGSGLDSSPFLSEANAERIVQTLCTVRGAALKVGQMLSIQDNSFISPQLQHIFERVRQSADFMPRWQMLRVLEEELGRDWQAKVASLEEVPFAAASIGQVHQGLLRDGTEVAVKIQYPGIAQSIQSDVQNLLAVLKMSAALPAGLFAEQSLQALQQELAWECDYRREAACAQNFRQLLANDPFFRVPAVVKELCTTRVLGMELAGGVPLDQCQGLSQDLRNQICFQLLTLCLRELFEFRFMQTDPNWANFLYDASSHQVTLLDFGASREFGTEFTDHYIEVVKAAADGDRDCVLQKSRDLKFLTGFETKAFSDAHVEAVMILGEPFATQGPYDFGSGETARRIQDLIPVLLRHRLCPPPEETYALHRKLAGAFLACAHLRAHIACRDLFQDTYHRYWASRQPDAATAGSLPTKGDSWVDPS
Sequence of TEC (human) (P42680 whole entry, looked up): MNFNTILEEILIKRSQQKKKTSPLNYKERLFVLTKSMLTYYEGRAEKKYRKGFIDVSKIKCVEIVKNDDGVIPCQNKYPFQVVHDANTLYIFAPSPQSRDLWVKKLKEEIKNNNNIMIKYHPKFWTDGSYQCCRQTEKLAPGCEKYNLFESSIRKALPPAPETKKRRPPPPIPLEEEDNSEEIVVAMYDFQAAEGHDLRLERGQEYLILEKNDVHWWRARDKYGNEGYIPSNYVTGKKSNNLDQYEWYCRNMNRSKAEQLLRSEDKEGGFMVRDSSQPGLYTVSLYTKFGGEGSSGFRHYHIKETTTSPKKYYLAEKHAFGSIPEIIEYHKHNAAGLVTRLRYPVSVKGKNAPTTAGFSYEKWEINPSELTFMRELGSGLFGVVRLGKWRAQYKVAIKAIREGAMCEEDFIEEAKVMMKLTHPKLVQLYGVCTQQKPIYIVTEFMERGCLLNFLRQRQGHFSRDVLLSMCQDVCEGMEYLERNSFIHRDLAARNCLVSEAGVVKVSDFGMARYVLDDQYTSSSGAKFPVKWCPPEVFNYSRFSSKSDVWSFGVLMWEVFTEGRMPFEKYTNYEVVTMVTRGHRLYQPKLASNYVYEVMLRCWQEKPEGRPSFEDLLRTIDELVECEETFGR
Sequence of STK33 (human) (Q9BYT3 whole entry, looked up): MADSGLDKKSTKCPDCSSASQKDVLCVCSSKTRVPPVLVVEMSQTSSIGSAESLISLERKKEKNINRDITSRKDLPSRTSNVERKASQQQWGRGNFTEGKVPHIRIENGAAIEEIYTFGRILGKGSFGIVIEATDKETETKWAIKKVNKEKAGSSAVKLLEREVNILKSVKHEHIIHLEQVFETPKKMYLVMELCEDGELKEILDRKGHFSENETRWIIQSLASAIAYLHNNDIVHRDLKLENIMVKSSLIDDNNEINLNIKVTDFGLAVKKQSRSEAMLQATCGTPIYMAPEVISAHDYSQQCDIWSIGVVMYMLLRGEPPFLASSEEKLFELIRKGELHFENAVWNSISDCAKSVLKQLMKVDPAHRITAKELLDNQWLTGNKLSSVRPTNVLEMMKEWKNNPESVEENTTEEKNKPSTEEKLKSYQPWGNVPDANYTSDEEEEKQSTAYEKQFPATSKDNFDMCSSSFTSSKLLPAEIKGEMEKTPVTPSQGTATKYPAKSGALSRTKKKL
Sequence of DCLK3 (human) (Q9C098 whole entry, looked up): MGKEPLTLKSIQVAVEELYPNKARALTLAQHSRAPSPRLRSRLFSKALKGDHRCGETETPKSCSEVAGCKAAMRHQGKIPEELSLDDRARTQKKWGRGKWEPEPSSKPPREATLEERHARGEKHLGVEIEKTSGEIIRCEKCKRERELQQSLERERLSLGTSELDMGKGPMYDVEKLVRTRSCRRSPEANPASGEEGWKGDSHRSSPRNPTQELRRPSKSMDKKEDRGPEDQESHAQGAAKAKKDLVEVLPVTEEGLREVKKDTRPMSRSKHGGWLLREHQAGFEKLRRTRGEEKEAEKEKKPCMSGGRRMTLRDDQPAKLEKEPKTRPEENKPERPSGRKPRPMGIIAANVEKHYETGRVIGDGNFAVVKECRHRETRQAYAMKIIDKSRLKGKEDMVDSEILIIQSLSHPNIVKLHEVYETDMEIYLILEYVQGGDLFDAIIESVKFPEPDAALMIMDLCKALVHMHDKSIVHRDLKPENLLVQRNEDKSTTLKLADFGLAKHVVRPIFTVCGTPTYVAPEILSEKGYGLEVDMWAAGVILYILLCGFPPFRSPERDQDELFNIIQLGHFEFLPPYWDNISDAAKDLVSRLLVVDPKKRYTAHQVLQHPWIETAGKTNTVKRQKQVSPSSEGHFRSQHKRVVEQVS
Sequence of PAK2 (human) (Q13177 whole entry, looked up): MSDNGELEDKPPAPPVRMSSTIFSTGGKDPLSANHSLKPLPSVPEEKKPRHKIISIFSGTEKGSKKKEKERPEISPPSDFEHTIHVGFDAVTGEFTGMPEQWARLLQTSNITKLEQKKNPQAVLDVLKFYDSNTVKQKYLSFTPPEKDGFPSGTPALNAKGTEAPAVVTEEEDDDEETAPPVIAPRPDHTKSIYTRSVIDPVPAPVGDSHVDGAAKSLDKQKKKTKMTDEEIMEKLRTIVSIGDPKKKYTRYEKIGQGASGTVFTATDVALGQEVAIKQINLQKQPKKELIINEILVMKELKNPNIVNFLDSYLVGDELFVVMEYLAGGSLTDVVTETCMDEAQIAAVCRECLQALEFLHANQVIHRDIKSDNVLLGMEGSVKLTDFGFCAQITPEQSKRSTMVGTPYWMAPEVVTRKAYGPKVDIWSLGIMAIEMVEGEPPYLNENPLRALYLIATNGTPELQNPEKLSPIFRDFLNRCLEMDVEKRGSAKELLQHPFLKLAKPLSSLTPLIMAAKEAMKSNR
Sequence of CSNK2A2 (human) (P19784 whole entry, looked up): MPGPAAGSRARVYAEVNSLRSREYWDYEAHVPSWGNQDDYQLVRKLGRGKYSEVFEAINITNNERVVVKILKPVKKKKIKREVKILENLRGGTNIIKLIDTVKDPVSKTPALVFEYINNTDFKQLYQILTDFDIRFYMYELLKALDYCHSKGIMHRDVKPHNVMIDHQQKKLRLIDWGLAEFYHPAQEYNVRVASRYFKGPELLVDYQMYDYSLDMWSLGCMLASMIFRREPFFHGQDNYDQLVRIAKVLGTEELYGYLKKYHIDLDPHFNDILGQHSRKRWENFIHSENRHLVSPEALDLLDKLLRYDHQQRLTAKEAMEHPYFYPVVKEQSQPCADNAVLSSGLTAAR
Sequence of CHEK1 (human) (O14757 whole entry, looked up): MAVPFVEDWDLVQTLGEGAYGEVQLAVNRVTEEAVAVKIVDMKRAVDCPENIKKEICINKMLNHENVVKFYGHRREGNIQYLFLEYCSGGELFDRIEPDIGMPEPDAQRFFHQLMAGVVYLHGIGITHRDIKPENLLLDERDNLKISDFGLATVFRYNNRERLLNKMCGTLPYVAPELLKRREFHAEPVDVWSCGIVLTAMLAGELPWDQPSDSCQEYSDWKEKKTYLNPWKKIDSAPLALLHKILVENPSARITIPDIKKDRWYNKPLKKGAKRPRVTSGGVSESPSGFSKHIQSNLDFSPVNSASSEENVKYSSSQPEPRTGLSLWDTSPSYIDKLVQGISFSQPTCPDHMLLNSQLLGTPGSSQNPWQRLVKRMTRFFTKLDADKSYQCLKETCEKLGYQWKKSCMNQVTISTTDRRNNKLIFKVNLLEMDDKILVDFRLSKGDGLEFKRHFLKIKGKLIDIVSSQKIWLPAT

## COc1cc2ncnc(Nc3cccc(Cl)c3)c2cc1OC
DCLK3 (human)
  kinase still bound, per cent of control: 52%
RIOK1 (human)
  kinase still bound, per cent of control: 65%
SGK1 (human)
  kinase still bound, per cent of control: 68%
NLK (human)
  kinase still bound, per cent of control: 43%
TEC (human)
  kinase still bound, per cent of control: 100%
PAK2 (human)
  kinase still bound, per cent of control: 53%
FGFR1 (human)
  kinase still bound, per cent of control: 87%
BRAF (human)
  kinase still bound, per cent of control: 64%
MAPK1 (human)
  kinase still bound, per cent of control: 100%
ACVRL1 (human)
  kinase still bound, per cent of control: 100%
STK33 (human)
  kinase still bound, per cent of control: 73%
CSNK2A2 (human)
  kinase still bound, per cent of control: 16%
GSG2 (human)
  kinase still bound, per cent of control: 100%
[1]
  kinase still bound, per cent of control: 59%
CHEK1 (human)
  kinase still bound, per cent of control: 100%
PLK4 (human)
  kinase still bound, per cent of control: 30%
AURKC (human)
  kinase still bound, per cent of control: 49%
CDK8 (human)
  kinase still bound, per cent of control: 100%
EPHB4 (human)
  kinase still bound, per cent of control: 38%
BLK (human)
  kinase still bound, per cent of control: 7.1%
STK16 (human)
  kinase still bound, per cent of control: 97%
CSNK1G3 (human)
  kinase still bound, per cent of control: 100%
PAK7 (human)
  kinase still bound, per cent of control: 90%
PTK2B (human)
  kinase still bound, per cent of control: 86%
LCK (human)
  kinase still bound, per cent of control: 5.4%
RIPK1 (human)
  kinase still bound, per cent of control: 100%
MAP4K5 (human)
  kinase still bound, per cent of control: 26%
MYO3B (human)
  kinase still bound, per cent of control: 100%
CPK1 (P.falciparum)
  kinase still bound, per cent of control: 34%
EPHB2 (human)
  kinase still bound, per cent of control: 67%
[2]
  kinase still bound, per cent of control: 76%
EPHA4 (human)
  kinase still bound, per cent of control: 72%
ADCK4 (human)
  kinase still bound, per cent of control: 28%
CDK4 CCND3 (human)
  kinase still bound, per cent of control: 93%
CSNK1A1 (human)
  kinase still bound, per cent of control: 35%
CSNK1D (human)
  kinase still bound, per cent of control: 54%
WNK1 (human)
  kinase still bound, per cent of control: 71%
ACVR2B (human)
  kinase still bound, per cent of control: 54%
MAST1 (human)
  kinase still bound, per cent of control: 79%
